“Also recorded” adds a separate entry of the source.
Experiments:
human MNC = experiment: Human MNC proliferation under direct cell to cell contact with hUCB-MSC; assay type: cell-based; conditions: direct cell to cell interaction
Excerpt: In the present experiment, the inventors investigated whether TLR and NLR agonists enhance the suppressive activity of hUCB-MSC against human […] proliferation. Based on the study that identified the importance of a direct interact ion between MSCs and lymphocytes in inhibition of lymphocyte proliferation by MSCs, the present inventors investigated whether MDP has an effect on the suppressive ability of hUCB-MSCs against MNC proliferation under the conditions where two cell groups are in contact with each other.

hUCB-MSCs [1] = experiment: IL-8 production in hUCB-MSCs after stimulation by receptor agonists (ELISA); assay type: cell-based, human; conditions: 24 hours with agonist
Procedure: After conforming the expression of the receptors of interest in hUCB-MSC in Example 2-1, the functionality of the receptors investigated by monitoring IL-8 production after stimulation by agonists. For this experiment, hUCB-MSCs were cultured at a density of 2×10^4 cells/well in KSFM medium supplemented with 2% FBS in a 96-well plate. After 24 hours of culturing, the cells were treated with the following agonists corresponding to each of the receptors, i.e., Pam3CSK4 (TLR2 agonist, Pam3), LPS (TLR4 agonist), Tri-DAP (NOD1 agonist, T-DAP), and MDP (NOD2 agonist). Then the samples were incubated for additional 24 hours. The supernatant of each culture was collected, centrifuged, and filtered through a 0.2 μm filter. Then, concentrations of IL-8 and PGE2 were measured using an ELISA kit (R&D Systems, Minneapolis, Minn., USA). Ultrapure LPS (E. coli O111:B4), Pam3CSK4, and Tri-DAP were purchased from Invivogen (San Diego, Calif., USA), MDP [Ac-(6-O-stearoyl)-muramyl-Ala-D-Glu-NH2; muramyl dipeptide] was purchased from Bachem (Bubendorf, Switzerland). Recombinant human Interferon-γ was purchased from Peprotech (Rockyhill, N.J., USA).

MNC = MNC proliferation in culture medium/supernatant of agonist-treated hUCB-MSC; assay type: cell-based, human; conditions: for MNC proliferation in culture medium of agonist-treated hUCB-MSC: hUCB-MSC #618, MNC cultured 3 days
Procedure: Soluble factors are also known to mediate immunosuppression by MSC. So the present inventors examined whether secretory factors generated by UCB-MSCs have an effect on human MNC proliferation. Culture medium (CM) was prepared, and hUCB-MSCs were co-cultured with the agonist for 24 hours. After washing, the cells were cultured fresh for additional […]. Then, a control group containing culture medium (CM) and sample of hUCB-MSCs treated with agonist (#613) were prepared, and MNCs were cultured in CM containing hUCB-MSCs for 3 days.
To determine whether MDP enhances the immunosuppressive activity of in UCB-MSC, the following experiment was performed. A control group containing culture medium (CM) of hUCB-MSC was prepared and the agonist-treated hUCB-MSCs were collected on the 5th day of culturing. Then, MNC was co-cultured in CM of hUCB-MSC for 3 days more, and after culturing, the level of MNC proliferation was monitored.
Additionally, to investigate the correlation among NOD2, Rip2 and MDP in MNC inhibition, the following experiment was conducted using siRNAs of […] and Rip2 and a control group (siCTL). When the cell density reached 60%, siRNAs were transfected into the cells. The siRIPK2 (M-003602-02) which is the siRNA of receptor-interacting serine-threonine kinase 2 (RIPK2 or receptor interacting kinase protein 2 (Rip2) which is the adaptor of […] and NOD2 and the type of kinase called RICK or CARDIAK (Bertin et al, 1999; Inohara et al, 1999; Ogura et al, 2001b)), siNOD2 (J-011338-07) which is the siRNA of NOD2, and a non-targeting control (siControl #1, D-001810-01) were purchased from Dharmacon (Chicago, Ill., USA). DharmaFECT1 (Dharmacon) was used as a transfection reagent, and siRNA was transfected at a concentration of 100 nmol/L. About 48 hours later, the medium was replaced with the fresh one, and the cells were treated with 10 μg/mL of MDP (NOD2 agonist) for 24 hours, except for a negative control (culture medium of MNC only) and a positive control (medium added with UCB-MSC supernatant (UMS) without agonist).
That is, a medium where MNC was cultured alone (i), and a medium added with UCB-MSC supernatant (UMS) without agonist (ii) were prepared as control groups, and a medium treated with MDP and UMS (iii), a medium treated with MDP, UMS, and control siRNA (siCTL) (iv), a medium treated with MDP, UMS and siNOD2 (v), and a medium treated with MDP, UMS, and siRip2 (vi) were prepared. Thereafter, MNC proliferation was measured by optical density at the wavelength of 450 nm.
In order to investigate the role of PGE2 in inhibition of MNC by hUCB-MSC, MNC proliferation was examined when treated with the MSC supernatant, MDP-treated MSC supernatant, and MDP and indomethacin (COX-2 inhibitor)-treated MSC supernatant. The experiment was performed by the same method described in Example 3.

hUCB-MSCs [2] = experiment: PGE2 secretion by hUCB-MSCs (ELISA); assay type: cell-based, human
Procedure: The hUCB-MSCs (2×10^4 cells/well) were cultured in MSC medium supplemented with 2% FBS in a 96-well plate. After 24 hrs of culturing, the cells were treated with 1 μg/mL Pam3CSK4 (TLR2 agonist), 1 μg/mL LPS (TLR4 agonist), 10 μg/mL Tri-DAP (NOD1 agonist) or 10 μg/mL MDP (NOD2 agonist) and cultured for additional 24 hours, then the culture supernatant of each sample was collected. After centrifugation, the culture supernatants were filtered through a 0.2 μm filter. Then, PGE2 concentration was measured using an ELISA kit (R&D Systems, Minneapolis, Minn., USA) following the manufacture's protocol.
To determine the sustainment time of the effects of MDP treatment, the amount of PEG2 produced was monitored after 1 day-long treatment of hUCB-MSCs with MDP. In this experiment, MDP was removed after 1 day of culturing by removing the culture medium and washing the cells with phosphate buffered saline (PBS) 5 times. Then the amount of PEG2 produced was measured. Meanwhile, cells were treated with MDP by the same method described in Example 5-1, and PGE2 concentration was measured. Also, in order to determine the effects of NOD2, Rip2 and COX-2 on PGE2 expression, the cells were treated with each of the control group of Example 3-3 i.e. siRNA (siCTL), siNOD2, siRip2 and COX-2 inhibitor called indomethacin (Sigma (St. Louis, Mo., USA).
(§1) Soluble factors such as hepatocyte growth factor, TGF-β1, indoleamine 2,3 dioxygenase-1 (IDO-1), nitric oxide (NO), and prostaglandin E2 (PGE2) are the strong candidates for regulating immunosuppression by MSC. In order to determine whether TLR and NLR agonists induce the production of soluble factors including NO, PGE2 and TGF-β1 in hUCB-MSCs, the cells were cultured with Pam3CSK4, LPS, Tri-DAP, and MDP for 24 hours, and culture supernatants were collected. Secretion of the soluble factors was monitored by the method described in Examples 5-1 and 5-2.

hMNCs = experiment: Treg population (CD4, CD25, Foxp3) in hMNCs cultured with UCM, flow cytometry; assay type: cell-based, human
Procedure: Next, the present inventors investigated the effect of UCM on differentiation of hMNC into regulatory T cells (Treg). For this, hMNCs were cultured with UCM for 5 days, and co-expression of CD4, CD25, and Foxp3 in hMNCs was determined by Flow cytometry.

hMNC [3] = experiment: IL-10 production by MNC cultured with UCB-MSC supernatant and ConA (ELISA); assay type: cell-based, human
Procedure: In order to determine the production level of IL-10, hUCB-MSCs (1×10^5 cells/well) were cultured in MSC medium supplemented with 2% FBS in a 24 well plate. About 24 hours later, the cells were treated with siNOD2 or indomethacin (Indo), and further cultured for 24 hours. Then the cells were washed five times, and fresh RPMI was added. After 5 days of culturing, UCB-MSC supernatant (UMS) was obtained. MNCs (1×10^6/well) were cultured with UMS and ConA (Sigma (St. Louis Mo., USA)). After 3 days of culturing, cell supernatant was collected, centrifuged, and filtered through a 0.2 μm filter. Then, IL-10 concentration was measured using an ELISA kit (R&D Systems, Minneapolis, Minn., USA).
PGE2 produced in bone marrow stromal cells is known to take an important role in IL-10 production by host macrophages (Nemeth, K., A. et al., Bone marrow stromal cells attenuate sepsis via prostaglandin E(2)-dependent reprogramming of host macrophages to increase their interleukin-10 production. Nat Med 15:42-49, 2009). MDP induces PGE2 production in hUCB-MSCs, and thus the present inventors examined whether IL-10 production in hMNCs is increased in the presence of MDP-UCM. The experiment was performed by the same method described in Example 5-6.

mouse splenocytes [4] = experiment: Mouse splenocyte proliferation cultured with PGE2; assay type: cell-based; conditions: PGE2 at a concentration of 10 ng/mL or higher
Procedure: (§2) In order to investigate the effect of PGE2 on mononuclear cell (MNC) proliferation, hMNC and mouse splenocytes were cultured with various concentrations of PGE2. The experiment was performed by the same method described in Example 5-5.

hMNC [5] = experiment: hMNC proliferation cultured with PGE2; assay type: cell-based, human; conditions: PGE2 at a concentration of 10 ng/mL or higher
Procedure: as §2

mouse splenocytes [6] = experiment: Xenogeneic mouse splenocyte proliferation in hUCB-MSC culture medium; assay type: cell-based
hUCB-MSCs [7] = experiment: TGF-β1 production by hUCB-MSCs; assay type: cell-based, human; conditions: 24 hours with agonist
Procedure: as §1

COX-2 = COX-2 expression in hUCB-MSCs (immunoblot); assay type: cell-based, human; conditions: 24 hours with agonist
Procedure: Cells were treated with 1 μg/mL Pam3CSK4 (TLR2 agonist), 1 μg/mL LPS (TLR4 agonist), 10 μg/mL Tri-DAP (NOD1 agonist) or 10 μg/mL MDP (NOD2 agonist) and cultured for 24 hours. Then, the collected cells were lysed using 1% Nonidet-P40 buffer containing 2 mM dithiothreitol and protease cocktail (Roche, US). The cell lysates were resolved by 12% SDS-PAGE, and transferred onto a nitrocellulose membrane. Then, immunostaining was performed using primary antibodies (COX-2, GAPDH (Santa Cruz biotechnology, Santa Cruz, Calif., USA)). Thereafter, immunostaining was performed using secondary antibodies, and proteins were detected using an enhanced chemiluminescence (ECL) reagent (Intron Biotechnology).
To investigate a correlation between COX-2 expression and the function of NOD2 and Rip2, cells were first treated with MDP and further treated with siNOD2 and siRip2. Then the COX-2 expression level was examined. Protein expression level was measured by using the method described in Example 5-2, and the method for siRNA treatment was the same as described in Example 3-3.

Q: Which results are given for Pam3CSK4?
A: effect of agonist on suppressive activity of hUCB-MSCs against MNC proliferation (human MNC): did not affect the suppressive activity of hUCB-MSCs against MNC proliferation; IL-8 production (hUCB-MSCs [1]): increased IL-8 production in hUCB-MSCs in a dose-dependent manner; MNC proliferation in culture medium of agonist-treated hUCB-MSC (MNC): this effect was absent; MNC proliferation in culture medium of agonist-treated hUCB-MSC (MNC; listed as Pam3): only slightly inhibited

Q: How did the “effect on MDP-enhanced PGE2 production” value (hUCB-MSCs [2]; hUCB-MSCs / MDP-UCM) turn out when `COc1ccc2c(c1)c(CC(=O)O)c(C)n2C(=O)c1ccc(Cl)cc1` [indomethacin] was run?
A: Its value is “MDP-enhanced PGE2 production was inhibited”.

Q: What about the “effect on the increase in Treg population by MDP-UCM” value (hMNCs) of the same compound?
A: Its value is “reversed”.

Q: What about the “effect on MDP-increased IL-10 production by MNC” value (hMNC [3]) of the same compound?
A: The value was “IL-10 production was suppressed; also recorded: reversed”.

Q: And the “effect on the inhibition of MNC proliferation by MDP-treated MSC culture medium (MDP-UCM)” value (MNC; co-treatment or siRNA of hUCB-MSC)?
A: The value was “MNC proliferation rate similar to that of the negative control group; also recorded: counteracted”.

Q: How did the “effect of agonist on suppressive activity of hUCB-MSCs against MNC proliferation” value (human MNC) turn out when `C[C@H](N)C(=O)N[C@H](CCC(=O)NC(CCCC(N)C(=O)O)C(=O)O)C(=O)O` (stereo partly shown) [Tri-DAP, Tri-diaminopimelic Acid] was run?
A: Its value is “did not affect the suppressive activity of hUCB-MSCs against MNC proliferation”.

Q: And the IL-8 production (hUCB-MSCs [1])?
A: Its IL-8 production is “increased IL-8 production in hUCB-MSCs in a dose-dependent manner”.

Q: What about the “MNC proliferation in culture medium of agonist-treated hUCB-MSC” value (MNC) of the same compound?
A: Its value is “this effect was absent”.

Q: What about the “MNC proliferation in culture medium of agonist-treated hUCB-MSC” value (MNC; listed as T-DAP) of the same compound?
A: The value was “only slightly inhibited”.

Q: Which results are given for `CCCCC[C@H](O)/C=C/[C@H]1[C@H](O)CC(=O)[C@@H]1C/C=C\CCCC(=O)O` [PGE2, (5Z, 11(alpha),13E,15S)-11,15-dihydroxy-9-oxo-prosta-5,13-dien-1-oic acid]?
A: proliferation of mouse splenocytes (mouse splenocytes [4]): remarkably inhibited; proliferation of hMNC (hMNC [5]): remarkably inhibited

Q: Which results are given for `CCCCCCCCCCCCCCCCCC(=O)OCC1OC(O)C(NC(C)=O)C(OC(C)C(=O)NC(C)C(=O)NC(CCC(=O)O)C(N)=O)C1O` [MDP, Ac-(6-O-stearoyl)-muramyl-Ala-D-Glu-NH2]?
A: proliferation of xenogeneic mouse splenocytes in UCM (mouse splenocytes [6]): this inhibitory effect was enhanced by MDP stimulation; TGF-β1 production (hUCB-MSCs [7]): enhanced only by addition of MDP; PGE2 production level after removal of MDP (hUCB-MSCs [2]; MDP removed after 1 day, 5th day of culturing): greater than that in the control group; PGE2 secretion (hUCB-MSCs [2]; hUCB-MSCs, 24 hours with agonist (MDP 10 μg/mL)): significantly enhanced PGE2 secretion; also recorded: enhanced only by addition of MDP; COX-2 expression (COX-2): enhanced COX-2 expression; also recorded: increased; IL-10 production by MNC (hMNC [3]; MNC cultured 3 days with UCB-MSC supernatant and ConA): remarkably increased; effect of agonist on suppressive activity of hUCB-MSCs against MNC proliferation (human MNC): did not affect the suppressive activity of hUCB-MSCs against MNC proliferation; IL-8 production (hUCB-MSCs [1]): increased IL-8 production in hUCB-MSCs in a dose-dependent manner
